The record followed here is article PMC7312485, “Lessons on the Sigma-1 Receptor in TNBS-Induced Rat Colitis: Modulation of the UCHL-1, IL-6 Pathway” (International Journal of Molecular Sciences, 2020).

One test concerns TNBS-induced rat colitis. Briefly: Severity of inflammation (macroscopic lesion area by planimetry) in TNBS-induced colitis. It is filed as in vivo. The settings on record: TNBS group 61.68 ± […]. As for the experimental part: (§1) Animals were randomly divided into 3 groups: absolute control (no treatment, n = 12), 50% EtOH (ethanol enema, n = 12), and TNBS (10 mg dissolved in 50% Ethanol, n = 85). Colitis was assessed following Morris’ method. Animals fasted overnight and a TNBS enema was administered intracolonically (i.c.) with an 8cm long polyethylene canulla through the anus under mild anesthesia (Thiopental, i.p. 40 mg/kg). […] Animals were fasted for 5 h each day before i.c. treatments.
(§2) After 72 h of TNBS administration, euthanized animals (Thiopental, i.p. 100 mg/kg) were sacrificed and the last 8 cm portion of the colon was removed, gently opened, rinsed in physiological saline and photographed for further macroscopic analysis. Then, the colon segments were frozen in liquid nitrogen. Frozen colon tissues were powdered in liquid nitrogen by using a porcelain mortar and pestle and kept at −80 °C until used for biochemical measurements.
The extent of macroscopically apparent inflammation, ulceration and tissue disruption was determined in a randomized manner from the colored images, using proprietary computerized planimetry software which was developed in our laboratory (Stat_2_1_1, Szeged, Hungary) and is based on planimetrics. The area of macroscopically visible mucosal damage was calculated and expressed as a % of the total studied 8 cm colonic segment.

Test [1] concerns heme oxygenase enzyme (HO). The test can be described thus: Heme oxygenase activity (bilirubin formation) in colon, TNBS colitis. Conditions: TNBS group 0.26 ± 0.03. It counts as in vivo, rat. As for the experimental part: as §1, §2
For a further test, the system named is UCHL-1. Briefly: Western blot of UCHL-1 expression in colon, TNBS colitis. It is filed as in vivo, rat. Conditions: FLV 1 mg/kg i.c.; TNBS group 1.23 ± 0.16. As for the experimental part: (§3) Male Wistar–Harlan rats (225–250 g) were purchased from Toxicoop Ltd. (Dunakeszi, Hungary) and housed in a room with acclimatized temperature under 12h day/night cycles with food and water ad libitum. Animals were randomly divided into 3 groups: absolute control (no treatment, n = 12), 50% EtOH (ethanol enema, n = 12), and TNBS (10 mg dissolved in 50% Ethanol, n = 85). Colitis was assessed following Morris’ method. Animals fasted overnight and a TNBS enema was administered intracolonically (i.c.) with an 8cm long polyethylene canulla through the anus under mild anesthesia (Thiopental, i.p. 40 mg/kg). […]
(§4) In total, 30 mg from each powdered sample was measured and suspended in RIPA buffer (Merck Millipore, Burlington, MA, USA) supplemented with phenylmethylsulfonyl fluoride (PMSF) (Sigma-Aldrich, Budapest, Hungary); 1/10 of the final volume. […] The supernatant was collected and protein concentration was determined by using a Bradford assay and bovine serum albumin as a standard. […] Results were analyzed using Quantity One Software version 4.5 (Bio-Rad Laboratories, Hercules, CA, USA). […]
For orientation: In western blotting, separated proteins are transferred to a membrane and probed.

Test [2] deals with T1, sigma-1 receptor (σ1R) (Rattus norvegicus, UniProt Q9R0C9).
T1 construct: from tissue; host or cells: rat colon membrane homogenate (male Wistar–Harlan rats; control, TNBS, 50% EtOH, TNBS + FLV treated)
The test can be described thus: [3H](+)-pentazocine saturation binding in rat colon membranes. Conditions: TNBS-induced colitis rat colon membranes after 1 mg/kg FLV administration (TNBS + FLV). As for the experimental part:
The homogenate was centrifuged at 17,000× g for 10 min (4 °C).
The incubation was terminated by diluting the samples with an ice-cold wash buffer (50 mM of Tris–HCl, pH 8.0), followed by repeated washing and rapid filtration through Whatman GF/B glass fiber filters (Whatman Ltd., Maidstone, UK) presoaked with 0.1% polyethyleneimine. Filtration was performed with a 24-well Brandel Cell Harvester (Gaithersburg, MD, USA). Filters were air-dried and immersed into Ultima Gold MV scintillation cocktail, and then radioactivity was measured with a TRI-CARB 2100TR liquid scintillation analyzer (Packard, Perkin Elmer, Waltham, MA, USA).
All data are presented as mean ± SEM. […] In competition binding studies, the inhibitory constants (Ki) were calculated from the inflection points of the displacement curves using nonlinear least-square curve fitting and the Cheng–Prusoff equation, Ki = EC50/(1 + [ligand]/Kd).

For another test, the system named is NF-κB p65 subunit. Briefly: Western blot of NF-κB p65 expression in colon, TNBS colitis. The settings on record: TNBS group 0.83 ± 0.09. It counts as in vivo, rat. As for the experimental part: as §3, §4
For a further test, the system named is eNOS. The test can be described thus: eNOS levels in colon by ELISA, TNBS colitis. It counts as in vivo, rat. The settings on record: FLV 1 mg/kg i.c.; TNBS group 2.62 ± 0.126. As for the experimental part: as §3
(§5) To determine the tissue levels of IL-6 and eNOS in the colon, we used double-antibody sandwich ELISA kits specific for rat IL-6 or eNOS. eNOS kit was purchased from MyBioSource (MBS721860; San Diego, CA, USA) and IL-6 was purchased from GenAsia Biotech Co., Ltd. (Shanghai, China). […] Parameters were measured according to the manufacturer’s instructions and protocols, and optical densities (OD) were assayed at λ = 450 nm. […]
On the technique in general: ELISA stands for enzyme-linked immunosorbent assay.

Test [3] concerns myeloperoxidase enzyme (MPO). The test can be described thus: Myeloperoxidase activity in colon, TNBS colitis. It counts as in vivo, rat. The method, then:
as §1, §2
To further break the membranes, three freeze–thaw cycles were applied in liquid nitrogen and a 37 °C water bath. Homogenates then were centrifuged at 10,000× g for 15 min at 4 °C. […] The reaction was started with the addition of 10 µL 0.03% hydrogen peroxide (H2O2). After shaking for 90 s, MPO activity was assayed spectrophotometrically at 490 nm (Benchmark Microplate Reader, Bio-Rad Laboratories, Hercules, CA, USA). MPO activity was expressed as uU/mg protein.

The next test has as its system IL-6. Briefly: IL-6 levels in colon by ELISA, TNBS colitis. It counts as in vivo, rat. As for the experimental part:
as §3, §5

The next test deals with iNOS. Briefly: Western blot of iNOS expression in colon, TNBS colitis. It counts as in vivo, rat. The method, then: as §3, §4
The subject of a further test is HMGB1. The test can be described thus: Western blot of HMGB1 expression in colon, TNBS colitis. The settings on record: TNBS group 1.75 ± 0.165. It counts as in vivo, rat. The method, then: as §3, §4
Test [4] deals with sigma-1 receptor (σ1R). The test can be described thus: Western blot of sigma-1 receptor expression in colon, TNBS colitis. It counts as in vivo, rat. The method, then:
as §3, §4

T1 sequence (Q9R0C9 whole entry): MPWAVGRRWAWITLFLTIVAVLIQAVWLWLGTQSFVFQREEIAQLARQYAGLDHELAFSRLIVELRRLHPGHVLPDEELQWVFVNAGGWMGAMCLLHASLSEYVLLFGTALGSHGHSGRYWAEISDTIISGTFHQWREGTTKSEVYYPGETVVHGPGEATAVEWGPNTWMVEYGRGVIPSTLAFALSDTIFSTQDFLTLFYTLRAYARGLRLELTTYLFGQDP

In the case of `O=C(O)c1cc(/N=N/c2ccc(S(=O)(=O)Nc3ccccn3)cc2)ccc1O` [SASP, Sulfasalazine], the “Severity of inflammation (area of mucosal damage, % of 8 cm colonic segment)” value in the test on TNBS-induced rat colitis (positive control, 2 × 25 mg/kg per os) worked out at 35.78 ± 2.83%.

Turning to `COCCCC/C(=N\OCCN)c1ccc(C(F)(F)F)cc1` [FLV, Fluvoxamine], in test [1] (FLV 1 mg/kg i.c.), the HO enzyme activity is 0.40 ± 0.03 nmol bilirubin/h/mg protein. In the test on UCHL-1, the “UCHL-1 expression (normalized to β-actin)” value is reported as 2.104 ± 0.13 relative expression. For the same compound, on sigma-1 receptor (σ1R) [2], the “Bmax ± S.E.M., saturation binding (σ1R density)” value was 134 ± 14 fmol/mg. Also, the “NF-κB p65 subunit expression (normalized to β-actin)” value in the test on NF-κB p65 subunit (FLV 1 mg/kg i.c.) stood at 0.52 ± 0.04 relative expression. In addition, in the test with eNOS, the eNOS levels came out at 4.21 ± 0.66 relative expression. In addition, the MPO activity in test [3] (FLV 1 mg/kg i.c., TNBS group 42653.4 ± 3220.24) amounted to 25021.2 ± 2554.66 uU/mg protein. Moreover, the “IL-6 levels in colon” value in the test with IL-6 (FLV 1 mg/kg i.c., TNBS group 60.48 ± 4.55) is recorded as 30.53 ± 4.10 ng/L. In addition, the “iNOS expression (normalized to β-actin)” value with iNOS (FLV 1 mg/kg i.c., TNBS group 0.53 ± 0.02) is recorded as 0.255 ± 0.11 relative expression. For the same compound, the “HMGB1 expression (normalized to β-actin)” value in the test with HMGB1 (FLV 1 mg/kg i.c.) is 1.264 ± 0.07 relative expressions. For the same compound, in the test on sigma-1 receptor (σ1R) [4] (FLV 1 mg/kg i.c., TNBS group 0.326 ± 0.05), the “σ1R expression (normalized to β-actin)” value came to 0.72 ± 0.083 relative expression. The “Severity of inflammation (area of mucosal damage, % of 8 cm colonic segment)” value in the test with TNBS-induced rat colitis (0.1 mg/kg FLV i.c. once a day, 72 h after TNBS) worked out at 41.23 ± 5.76%; with TNBS-induced rat colitis (1 mg/kg i.c. once a day, 72 h after TNBS), 28.29 ± 2.53%.

`CN1CCN(CCc2ccc(Cl)c(Cl)c2)CC1` [BD1063]: in [1] (BD1063 0.1 mg/kg i.c.), the HO enzyme activity was 0.40 ± 0.04 nmol bilirubin/h/mg protein. In addition, the “NF-κB p65 subunit expression (normalized to β-actin)” value in the test with NF-κB p65 subunit (BD1063 0.1 mg/kg i.c.) was 0.48 ± 0.03 relative expression. The “MPO activity vs. TNBS group” value in [3] (BD1063 0.1 mg/kg i.c.) is listed as “didn’t affect the activity of the MPO”. For the same compound, the “IL-6 levels vs. TNBS group” value in the test with IL-6 (BD1063 0.1 mg/kg i.c.) is “didn’t affect IL-6 levels”. For the same compound, the “iNOS expression vs. TNBS group” value in the test on iNOS (BD1063 0.1 mg/kg i.c.) was “did not alter the expression of iNOS”. Further, in the test on HMGB1 (BD1063 0.1 mg/kg i.c.), the “HMGB1 expression (normalized to β-actin)” value stood at 1.305 ± 0.044 relative expressions. In the test with sigma-1 receptor (σ1R) [4] (BD1063 0.1 mg/kg i.c.), the “σ1R expression vs. TNBS group” value was “didn’t affect the expression of the receptor”. In addition, in the test with TNBS-induced rat colitis (0.1 mg/kg BD1063 i.c. once a day), the “Severity of inflammation (area of mucosal damage, % of 8 cm colonic segment)” value is given as 76.77 ± 2.52%.
